The text below walks through data of patent publication US20090239841A1, “Diaryl Ureas as CB1 Antagonists” (priority 2004, published 2009).

T1 sequence (P21554 whole entry): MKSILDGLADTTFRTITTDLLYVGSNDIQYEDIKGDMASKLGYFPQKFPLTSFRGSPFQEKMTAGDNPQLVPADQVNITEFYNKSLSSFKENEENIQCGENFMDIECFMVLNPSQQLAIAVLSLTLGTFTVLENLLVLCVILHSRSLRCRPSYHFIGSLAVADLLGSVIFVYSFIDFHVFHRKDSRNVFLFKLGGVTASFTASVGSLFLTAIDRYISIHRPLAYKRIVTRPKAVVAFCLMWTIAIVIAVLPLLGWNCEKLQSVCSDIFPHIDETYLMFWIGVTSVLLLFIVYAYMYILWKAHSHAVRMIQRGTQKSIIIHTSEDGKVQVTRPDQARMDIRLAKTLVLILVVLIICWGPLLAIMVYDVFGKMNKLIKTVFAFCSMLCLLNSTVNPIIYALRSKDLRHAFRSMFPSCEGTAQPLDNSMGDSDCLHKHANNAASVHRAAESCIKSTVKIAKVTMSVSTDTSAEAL

The assay addresses T1, hCB1 (Homo sapiens, UniProt P21554).
T1 construct: made in house; host or cells: Sf9 insect cells (baculovirus), P2 membranes
Kind of assay: Agonist-induced GTP binding (GTPγ35S) assay at CB1, Example 8. It is filed as biochemical. Particulars: IC50 at CB1, determined as described in Example 8; read-out: IC50. In outline:
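Antagonism read as inhibition of 1 nM CP55,940-stimulated GTPγ35S ([…]) binding, compounds at 10^−10 to 10^−5 M. Baculovirus-infected Sf9 membranes bearing hCB1 plus G-protein subunits, 60 min room-temperature incubation with 5 μM GDP. Filtration and scintillation counting; data as percent over basal.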
For the compound `COC(=O)c1ccc(NC(=O)Nc2ccc(CC#N)cc2)cc1` [Compound 713, methyl 4-[({[4-(cyanomethyl)phenyl]amino}carbonyl)amino]benzoate], the IC50 (as a rule, the concentration needed to halve the response being measured) was below 2000 nM.

Take `CCOC(=O)c1cccc(NC(=O)Nc2ccc(CC#N)cc2)c1` [Compound 714, ethyl 3-[({[4-(cyanomethyl)phenyl]amino}carbonyl)amino)benzoate]: the IC50 is below 2000 nM.

With `CCOC(=O)c1ccc(NC(=O)Nc2ccc(CC#N)cc2)cc1` [Compound 715, ethyl 4-[({[4-(cyanomethyl)phenyl]amino}carbonyl)amino]benzoate], the IC50 was below 2000 nM.

With `COC(=O)c1cccc(NC(=O)Nc2ccc(OCC#N)cc2)c1` [Compound 716, methyl 3-[({[4-(cyanomethoxy)phenyl]amino}carbonyl)amino] benzoate], the IC50 is below 2000 nM.

For the compound `COC(=O)c1ccc(NC(=O)Nc2ccc(OCC#N)cc2)cc1` [Compound 717, methyl 4-[({[4-(cyanomethoxy)phenyl]amino}carbonyl)amino] benzoate], the IC50 was below 2000 nM.

Turning to `CCOC(=O)c1cccc(NC(=O)Nc2ccc(OCC#N)cc2)c1` [Compound 718, ethyl 3-[({[4-(cyanomethoxy)phenyl]amino}carbonyl)amino]benzoate], the IC50 is below 2000 nM.

For `CCOC(=O)c1ccc(NC(=O)Nc2ccc(OCC#N)cc2)cc1` [Compound 719, ethyl 4-[({[4-(cyanomethoxy)phenyl]amino}carbonyl)amino]benzoate], the IC50 was below 2000 nM.

Regarding `CCC(=O)c1ccc(NC(=O)Nc2cccc(C(=O)OC)c2)cc1` [Compound 720, methyl 3-({[(4-propionylphenyl)amino]carbonyl}amino)benzoate], the IC50 was below 2000 nM.

`CCOC(=O)c1cccc(NC(=O)Nc2ccc(C(=O)CC)cc2)c1` [Compound 721, ethyl 3-({[(4-propionylphenyl)amino]carbonyl}amino)benzoate]: the IC50 is below 2000 nM.

Turning to `CCOC(=O)c1ccc(NC(=O)Nc2cccc(C(=O)OCC)c2)cc1` [Compound 722, ethyl 3-[({[4-(ethoxycarbonyl)phenyl]amino}carbonyl)amino] benzoate], the IC50 was below 2000 nM.

On to `CCOC(=O)c1cccc(NC(=O)Nc2ccc(S(C)(=O)=O)cc2)c1` [Compound 723, ethyl 3-[({[4-(methylsulfonyl)phenyl]amino}carbonyl)amino] benzoate], for which the IC50 is below 2000 nM.

For `COC(=O)c1ccc(NC(=O)Nc2ccc(C(=O)OC(C)C)cc2)cc1` [Compound 724, isopropyl methyl 4,4′-(carbonyldiimino)dibenzoate], the IC50 was below 2000 nM.

For `CCOC(=O)c1cccc(NC(=O)Nc2ccc(C(=O)OC(C)C)cc2)c1` [Compound 725, ethyl 3-[({[4-(isopropoxycarbonyl)phenyl]amino}carbonyl)amino] benzoate], the half-inhibitory concentration (IC50) is below 2000 nM.

Turning to `Cc1ccc(NC(=O)Nc2ccc(CC#N)cc2)cc1C` [Compound 726, 1-[4-(cyanomethyl)phenyl]-3-(3,4-dimethylphenyl)urea], the IC50 is below 2000 nM.

As for `Cc1ccc(NC(=O)Nc2ccc(CC#N)cc2)cc1F` [Compound 727, 1-[4-(cyanomethyl)phenyl]-3-(3-fluoro-4-methylphenyl)urea], the IC50 was below 2000 nM.

On to `N#CCc1ccc(NC(=O)Nc2ccc(F)c(F)c2)cc1` [Compound 728, 1-[4-(cyanomethyl)phenyl]-3-(3,4-difluorophenyl)urea], for which the IC50 was below 2000 nM.

As to `Cc1ccc(NC(=O)Nc2ccc(OCC#N)cc2)cc1C` [Compound 729, 1-[4-(cyanomethoxy)phenyl]-3-(3,4-dimethylphenyl)urea], the IC50 is below 2000 nM.

Turning to `Cc1ccc(NC(=O)Nc2ccc(OCC#N)cc2)cc1F` [Compound 730, 1-[4-(cyanomethoxy)phenyl]-3-(3-fluoro-4-methylphenyl)urea], the half-inhibitory concentration (IC50) is below 2000 nM.

On to `Cc1cc(NC(=O)Nc2ccc(OCC#N)cc2)ccc1F` [Compound 731, 1-[4-(cyanomethoxy)phenyl]-3-(4-fluoro-3-methylphenyl)urea], for which the IC50 is below 2000 nM.

Consider `N#CCOc1ccc(NC(=O)Nc2ccc(F)c(F)c2)cc1` [Compound 732, 1-[4-(cyanomethoxy)phenyl]-3-(3,4-difluorophenyl)urea], for which the IC50 is below 2000 nM.

Regarding `CCC(=O)c1ccc(NC(=O)Nc2ccc(C)c(C)c2)cc1` [Compound 733, 1-(3,4-dimethylphenyl)-3-(4-propionylphenyl)urea], the IC50 was below 2000 nM.

`CCC(=O)c1ccc(NC(=O)Nc2ccc(C)c(F)c2)cc1` [Compound 734, 1-(3-fluoro-4-methylphenyl)-3-(4-propionylphenyl)urea]: the IC50 was below 2000 nM.

For the compound `CCC(=O)c1ccc(NC(=O)Nc2ccc(F)c(C)c2)cc1` [Compound 735, 1-(4-fluoro-3-methylphenyl)-3-(4-propionylphenyl)urea], the IC50 was below 2000 nM.

As for `CCOC(=O)c1ccc(NC(=O)Nc2ccc(C)c(F)c2)cc1` [Compound 737, ethyl 4-({[(3-fluoro-4-methylphenyl)amino]carbonyl}amino)benzoate], the IC50 is below 2000 nM.

For the compound `CCOC(=O)c1ccc(NC(=O)Nc2ccc(F)c(C)c2)cc1` [Compound 738, ethyl 4-({[(4-fluoro-3-methylphenyl)amino]carbonyl}amino)benzoate], the IC50 is below 2000 nM.

As to `CCOC(=O)c1ccc(NC(=O)Nc2ccc(F)c(F)c2)cc1` [Compound 739, ethyl 4-({[(3,4-difluorophenyl)amino]carbonyl}amino)benzoate], the 50% inhibitory concentration (IC50) is below 2000 nM.

As to `Cc1ccc(NC(=O)Nc2ccc(C(=O)OC(C)C)cc2)cc1F` [Compound 740, isopropyl 4-({[(3-fluoro-4-methylphenyl)amino]carbonyl}amino)benzoate], the half-inhibitory concentration (IC50) was below 2000 nM.

As to `N#CCOc1ccc(NC(=O)Nc2cc(F)cc(F)c2)cc1` [Compound 743, 1-[4-(cyanomethoxy)phenyl]-3-(3,5-difluorophenyl)urea], the IC50 is below 2000 nM.

As to `CCC(=O)c1ccc(NC(=O)Nc2cc(F)cc(F)c2)cc1` [Compound 744, 1-(3,5-difluorophenyl)-3-(4-propionylphenyl)urea], the IC50 was below 2000 nM.

As for `COC(=O)c1ccc(NC(=O)Nc2cccc(O)c2)cc1` [Compound 745, methyl 4-({[(3-hydroxyphenyl)amino]carbonyl}amino)benzoate], the IC50 is below 2000 nM.

With `CCOC(=O)c1ccc(NC(=O)Nc2cccc(O)c2)cc1` [Compound 746, ethyl 4-({[(3-hydroxyphenyl)amino]carbonyl}amino)benzoate], the IC50 was below 2000 nM.

Turning to `COC(=O)c1ccc(NC(=O)Nc2ccc(O)cc2)cc1` [Compound 747, methyl 4-({[(4-hydroxyphenyl)amino]carbonyl}amino)benzoate], the IC50 is below 2000 nM.

In the case of `CCOC(=O)c1ccc(NC(=O)Nc2ccc(O)cc2)cc1` [Compound 748, ethyl 4-({[(4-hydroxyphenyl)amino]carbonyl}amino)benzoate], the IC50 was below 2000 nM.

Consider `CCOC(=O)c1ccc(NC(=O)Nc2ccc(CO)cc2)cc1` [Compound 749, ethyl 4-[({[4-(hydroxymethyl)phenyl]amino}carbonyl)amino] benzoate], for which the IC50 is below 2000 nM.

For the compound `CCOC(=O)c1ccc(NC(=O)Nc2ccc(C(C)O)cc2)cc1` (centres unmarked) [Compound 750, ethyl 4-[({[4-(1-hydroxyethyl)phenyl]amino}carbonyl)amino] benzoate], the IC50 was below 2000 nM.

For `CCOC(=O)c1ccc(NC(=O)Nc2cccc(CCO)c2)cc1` [Compound 751, ethyl 4-[({[3-(2-hydroxyethyl)phenyl]amino}carbonyl)amino] benzoate], the IC50 is below 2000 nM.

For `COC(=O)c1ccc(NC(=O)Nc2ccc(CCO)cc2)cc1` [Compound 752, methyl 4-[({[4-(2-hydroxyethyl)phenyl]amino}carbonyl)amino] benzoate], the half-inhibitory concentration (IC50) is below 2000 nM.

`CCOC(=O)c1cccc(NC(=O)Nc2ccc(CCO)cc2)c1` [Compound 753, ethyl 3-[({[4-(2-hydroxyethyl)phenyl]amino}carbonyl)amino] benzoate]: the IC50 is below 2000 nM.

Consider `CCOC(=O)c1ccc(NC(=O)Nc2ccc(CCO)cc2)cc1` [Compound 754, ethyl 4-[({[4-(2-hydroxyethyl)phenyl]amino}carbonyl)amino] benzoate], for which the IC50 was below 2000 nM.

With `COC(=O)c1ccc(NC(=O)Nc2cccc(OCCO)c2)cc1` [Compound 755, methyl 4-[({[3-(2-hydroxyethoxy)phenyl]amino}carbonyl)amino] benzoate], the IC50 was below 2000 nM.

On to `CCOC(=O)c1cccc(NC(=O)Nc2cccc(OCCO)c2)c1` [Compound 756, ethyl 3-[({[3-(2-hydroxyethoxy)phenyl]amino}carbonyl)amino] benzoate], for which the IC50 is below 2000 nM.

`CCOC(=O)c1ccc(NC(=O)Nc2cccc(OCCO)c2)cc1` [Compound 757, ethyl 4-[({[3-(2-hydroxyethoxy)phenyl]amino}carbonyl)amino] benzoate]: the IC50 is below 2000 nM.

In the case of `CCOC(=O)c1ccc(NC(=O)Nc2ccc(OCC(C)O)cc2)cc1` (centres unmarked) [Compound 758, ethyl 4-[({[4-(2-hydroxypropoxy)phenyl]amino}carbonyl)amino] benzoate], the half-maximal inhibitory concentration (IC50) is below 2000 nM.

In the case of `Cc1ccc(NC(=O)Nc2cccc(O)c2)cc1F` [Compound 759, 1-(3-fluoro-4-methylphenyl)-3-(3-hydroxyphenyl)urea], the IC50 is below 2000 nM.

Take `Cc1ccc(NC(=O)Nc2ccc(O)cc2)cc1F` [Compound 760, 1-(3-fluoro-4-methylphenyl)-3-(4-hydroxyphenyl)urea]: the IC50 was below 2000 nM.

For `Cc1ccc(NC(=O)Nc2ccc(CCO)cc2)cc1C` [Compound 761, 1-(3,4-dimethylphenyl)-3-[4-(2-hydroxyethyl)phenyl]urea], the IC50 was below 2000 nM.

As to `Cc1ccc(NC(=O)Nc2cccc(OCCO)c2)cc1F` [Compound 762, 1-(3-fluoro-4-methylphenyl)-3-[3-(2-hydroxyethoxy)phenyl]urea], the IC50 was below 2000 nM.
